Reference: patent EP1137645B1, “ALPHA-METHYLBENZYL-CONTAINING THIOUREA INHIBITORS OF HERPES VIRUSES CONTAINING A […] GROUP” (Wyeth, priority 1998, dated 2000)
≈ marks a conversion by molar mass, not a printed value. Like-named read-outs stand apart in the source and are kept apart here.

Legend:
[1] = system: HCMV recombinant mutant virus whose genome contains the prokaryotic beta-glucuronidase gene; test: microbe, parasite or virus in culture; format: cell-based, human cytomegalovirus; conditions: Human betaherpesvirus 5, Fibroblast
Procedure, shortened: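 Antiviral IC50 estimated from reduced reporter activity across compound amounts: lysates prepared 96 h after infection were tested with p-nitrophenyl- or methylumbelliferyl-glucuronide. Cells were human foreskin fibroblasts, infected alongside inhibitor with HCMV (e.g. RV145) expressing viral promoter-driven beta-glucuronidase.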

[2] = system: HSV- I; test: HSV antiviral (ELISA) assay; format: cell-based; conditions: read-out: IC50 (ug/ml) HSV
Procedure, shortened: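 IC50 from fluorescence versus untreated control in a cell ELISA: anti-glycoprotein D antibody, β-galactosidase-conjugated secondary, 4-methyl umbelliferone read at 365/450 nm. Vero cells (2% FBS DMEM) received compound 30 min pre-infection with HSV-1 at MOI 0.006, fixed ~24 h post-infection.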

[3] = system: VZV strain Ellen; test: VZV antiviral (ELISA) assay; format: cell-based
Procedure, shortened: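 HFF cells infected with VZV Ellen at multiplicity below 0.1 overnight, then mixed infected/uninfected cells seeded with compound in DMEM/2% FBS and incubated three days at 37°C, 5% CO2.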

[4] = Human alphaherpesvirus 3, VZV strain Ellen, HFF cells, ELISA, read-out: IC50 (ug/ml) VZV
[5] = read-out: IC50 ug/ml HCMV, HCMV, human foreskin fibroblasts
[6] = Human alphaherpesvirus 3, HFF, read-out: % inhibition 10 ug/ml VZV
[7] = Human alphaherpesvirus 3, HFF, read-out: IC50 (ug/ml) VZV
[8] = Human alphaherpesvirus 3, HFF, read-out: IC50 (ug/ml) VZV, VZV strain Ellen, HFF cells, ELISA
[9] = Human alphaherpesvirus 3, read-out: % inhibition 10 ug/ml VZV, 10 ug/ml, VZV strain Ellen, HFF cells, ELISA

Row | SMILES | IC50 ([1]; read-out: IC50 ug/ml HCMV) | IC50 ([2]; HSV- I, Vero cells, ELISA) | IC50 [3, 4] | IC50 [1, 5] | inhibition at 10 µg/mL [3, 6] | IC50 [3, 7] | IC50 ([2]; Vero) | IC50 [3, 8] | inhibition at 10 µg/mL [3, 9]
1 | COc1ccc(NC(=S)Nc2ccc(NC(=O)c3ccccc3F)cc2)cc1F [Example 995, 2-Fluoro-N-{4-[3-(3-fluoro-4-methoxy-phenyl)-thioureido]-phenyl}-benzamide] | > 10 µg/mL | > 10 µg/mL | > 10 µg/mL | – | – | – | – | – | –
2 | COc1cc(OC)c(NC(=S)Nc2ccc(NC(=O)c3cccc(OCC(=O)O)c3)cc2)cc1Cl [Example 222, (3-{4-[3-(5-Chloro-2,4-dimethoxy-phenyl)-thioureido]-phenylcarbamoyl}-phenoxy)-acetic acid] | – | > 50 µg/mL | – | > 50 µg/mL | 17% | > 10 µg/mL | – | – | –
3 | COc1ccc(NC(=S)Nc2ccc(NC(=O)c3ccccc3F)cc2)cc1Br [Example 811, N-{4-[3-(3-Bromo-4-methoxy-phenyl)-thioureido]-phenyl}-2-fluoro-benzamide] | – | – | – | 3.1 µg/mL (≈ 6.54 µM) | – | – | 0.8 µg/mL (≈ 1.69 µM) | > 7.5 µg/mL | –
4 | CCOc1ccc(NC(=S)Nc2ccc(NC(=O)c3ccccc3F)cc2)cc1Cl [Example 806, N-{4-[3-(3-Chloro-4-ethoxy-phenyl)-thioureido]-phenyl}-2-fluoro-benzamide] | – | – | – | > 10 µg/mL | – | – | > 10 µg/mL | > 7.5 µg/mL | –
5 | CSc1ccc(NC(=S)Nc2ccc(NC(=O)c3ccccc3F)cc2)cc1Cl [Example 847, N-{4-[3-(3-Chloro-4-methylsulfanyl-phenyl)-thioureido]-phenyl}-2-fluoro-benzamide] | – | 0.4 µg/mL (≈ 0.897 µM) | – | 0.3 µg/mL (≈ 0.673 µM) | 65% | > 10 µg/mL | – | – | –
6 | Cc1ccc(NC(=S)Nc2ccc(NC(=O)c3c(F)cccc3F)cc2)cc1Cl [Example 235, N-{4-[3-(3-Chloro-4-methyl-phenyl)-thioureido]-phenyl}-2,6-difluoro-benzamide] | – | 0.2 µg/mL (≈ 0.463 µM) | – | > 10 µg/mL | 50% | > 10 µg/mL | – | – | –
7 | CN(C)c1ccc(NC(=S)Nc2ccc(NC(=O)c3ccccc3F)cc2)cc1Cl [Example 852, N-{4-[3-(3-Chloro-4-dimethylamino-phenyl)-thioureido]-phenyl}-2-fluoro-benzamide] | – | 4 µg/mL (≈ 9.03 µM) | – | 0.6 µg/mL (≈ 1.35 µM) | 80% | 6.5 µg/mL (≈ 14.7 µM) | – | – | –
8 | Cc1ccc(NC(=S)Nc2ccc(NC(=O)c3ccccc3F)cc2)cc1Cl [Example 231, N-{4-[3-(3-Chloro-4-methyl-phenyl)-thioureido]-phenyl}-2-fluoro-benzamide] | – | 0.5 µg/mL (≈ 1.21 µM) | – | > 10 µg/mL | 11% | > 10 µg/mL | – | – | –
9 | COc1ccccc1C(=O)Nc1ccc(NC(=S)Nc2cc(Cl)c(OC)c(Cl)c2)cc1 [Example 873, N-{4-[3-(3,5-Dichloro-4-methoxy-phenyl)-thioureido]-phenyl}-2-methoxy-benzamide] | – | > 10 µg/mL | – | 0.3 µg/mL (≈ 0.63 µM) | 23% | > 10 µg/mL | – | – | –
10 | COc1cc(OC)c(NC(=S)Nc2ccc(NC(=O)c3ccccc3N)cc2)cc1Cl [Example 181, 2-Amino-N-{4-[3-(5-chloro-2,4-dimethoxy-phenyl)-thioureido]-phenyl}-benzamide] | – | 1.5 µg/mL (≈ 3.28 µM) | – | > 10 µg/mL | 60% | > 10 µg/mL | – | – | –
11 | NNC(=O)c1cccc(NC(=S)Nc2ccc(NC(=O)c3ccccc3F)cc2)c1 [Example 463, 2-Fluoro-N-{4-[3-(3-hydrazinocarbonyl-phenyl)-thioureido]-phenyl}-benzamide] | > 10 µg/mL | > 10 µg/mL | > 10 µg/mL | – | – | – | – | – | 19%
12 | O=C(Nc1ccc(NC(=S)Nc2ccc3scnc3c2)cc1)c1ccccc1F [Example 484, N-[4-(3-Benzothiazol-5-yl-thioureido)-phenyl]-2-fluoro-benzamide] | – | 0.4 µg/mL (≈ 0.947 µM) | – | > 10 µg/mL | 28% | > 10 µg/mL | – | – | –
13 | O=C(O)c1cccc(NC(=S)Nc2ccc(NC(=O)c3ccco3)cc2)c1 [Example 964, 3-(3-{4-[(Furan-2-carbonyl)-amino]-phenyl}-thioureido)-benzoic acid] | > 10 µg/mL | > 10 µg/mL | > 10 µg/mL | – | – | – | – | – | 0%
14 | COc1ccc(C(C)NC(=S)Nc2ccc(NC(=O)c3ccccc3F)cc2)cc1 (stereo not drawn) [Example 777, 2-Fluoro-N-(4-{3-[1-(4-methoxy-phenyl)-ethyl]-thioureido}-phenyl)-benzamide] | – | – | – | 1.7 µg/mL (≈ 4.01 µM) | – | – | > 10 µg/mL | > 7.5 µg/mL | –
15 | O=C(Nc1ccc(NC(=S)NCc2cc(C(F)(F)F)cc(C(F)(F)F)c2)cc1)c1ccccc1F [Example 543, N-{4-[3-(3,5-Bis-trifluoromethyl-benzyl)-thioureido]-phenyl}-2-fluoro-benzamide] | 0.3 µg/mL (≈ 0.582 µM) | > 10 µg/mL | > 10 µg/mL | – | – | – | – | – | –
16 | CCOC(=O)Nc1cccc(C(=O)Nc2ccc(NC(=S)Nc3cc(Cl)c(OC)cc3OC)cc2)c1 [Example 180, (3-{4-[3-(5-Chloro-2,4-dimethoxy-phenyl)-thioureido]-phenylcarbamoyl}-phenyl)-carbamic acid ethyl ester] | – | – | – | 1.5 µg/mL (≈ 2.84 µM) | 36% | – | 1.3 µg/mL (≈ 2.46 µM) | > 10 µg/mL | –
17 | Nc1cc(Cl)cc(NC(=S)Nc2ccc(NC(=O)c3ccccc3F)cc2)c1 [Example 442, N-{4-[3-(3-Amino-5-chloro-phenyl)-thioureido]-phenyl}-2-fluoro-benzamide] | – | 1 µg/mL (≈ 2.41 µM) | – | 2 µg/mL (≈ 4.82 µM) | 81% | 8 µg/mL (≈ 19.3 µM) | – | – | –
18 | CN(C)c1c(Cl)cccc1NC(=S)Nc1ccc(NC(=O)c2c(F)cccc2F)cc1 [Example 504, N-{4-[3-(3-Chloro-2-dimethylamino-phenyl)-thioureido]-phenyl}-2,6-difluoro-benzamide] | – | 6 µg/mL (≈ 13 µM) | – | 2 µg/mL (≈ 4.34 µM) | 99% | 4.5 µg/mL (≈ 9.76 µM) | – | – | –
19 | CCSc1ccc(NC(=S)Nc2ccc(NC(=O)c3ccccc3F)cc2)cc1Cl [Example 386, N-{4-[3-(3-Chloro-4-ethylsulfanyl-phenyl)-thioureido]-phenyl}-2-fluoro-benzamide] | – | > 10 µg/mL | – | 2 µg/mL (≈ 4.35 µM) | 29% | > 10 µg/mL | – | – | –
20 | COc1ccc(C(=O)Nc2ccc(NC(=S)Nc3ccc(OC)c(Cl)c3)cc2)cc1 [Example 820, N-{4-[3-(3-Chloro-4-methoxy-phenyl)-thioureido]-phenyl}-4-methoxy-benzamide] | – | 4 µg/mL (≈ 9.05 µM) | – | 8 µg/mL (≈ 18.1 µM) | 20% | > 10 µg/mL | – | – | –
21 | C[S+]([O-])c1ccc(NC(=S)Nc2ccc(NC(=O)c3c(F)cccc3F)cc2)cc1Cl (stereo not drawn) [Example 392, N-{4-[3-(3-Chloro-4-methanesulfinyl-phenyl)-thioureido]-phenyl}-2,6-difluoro-benzamide] | – | > 10 µg/mL | – | 0.5 µg/mL (≈ 1.04 µM) | 92% | 2 µg/mL (≈ 4.17 µM) | – | – | –
22 | COc1cc(OC)c(NC(=S)Nc2ccc(NC(=O)c3ccc(F)cc3)cc2)cc1Cl [Example 116, N-{4-[3-(5-Chloro-2,4-dimethoxy-phenyl)-thioureido]-phenyl}-4-fluoro-benzamide] | – | – | – | 3 µg/mL (≈ 6.52 µM) | 0% | > 10 µg/mL | 2 µg/mL (≈ 4.35 µM) | – | –
23 | O=C(Nc1ccc(NC(=S)Nc2cccc([N+](=O)[O-])c2)cc1)c1ccccc1F [Example 959, 2-Fluoro-N-{4-[3-(3-nitro-phenyl)-thioureido]-phenyl}-benzamide] | > 10 µg/mL | 0.7 µg/mL (≈ 1.71 µM) | > 10 µg/mL | – | – | – | – | – | 33%
24 | C[C@H](NC(=S)Nc1ccc(NC(=O)c2ccccc2F)cc1)c1ccc(Br)cc1 [Example 1004, (S)-N-(4-{3-[1-(4-Bromo-phenyl)-ethyl]-thioureido}-phenyl)-2-fluoro-benzamide] | – | – | – | 4.2 µg/mL (≈ 8.89 µM) | – | – | > 10 µg/mL | 0.06 µg/mL (≈ 0.127 µM) | –
25 | COc1ccc(C(=O)Nc2ccc(NC(=S)Nc3cc(Cl)c(OC)cc3OC)cc2)cc1 [Example 121, N-{4-[3-(5-Chloro-2,4-dimethoxy-phenyl)-thioureido]-phenyl}-4-methoxy-benzamide] | – | 0.3 µg/mL (≈ 0.636 µM) | – | 6 µg/mL (≈ 12.7 µM) | 0% | > 10 µg/mL | – | – | –
26 | CCCCSc1ccc(NC(=S)Nc2ccc(NC(=O)c3ccccc3F)cc2)cc1Cl [Example 387, N-{4-[3-(4-Butylsulfanyl-3-chloro-phenyl)-thioureido]-phenyl}-2-fluoro-benzamide] | – | > 10 µg/mL | – | > 10 µg/mL | 26% | > 10 µg/mL | – | – | –
27 | CC(C)(C)c1cccc(NC(=S)Nc2ccc(NC(=O)c3ccccc3F)cc2)c1 [Example 869, N-{4-[3-(3-tert-Butyl-phenyl)-thioureido]-phenyl}-2-fluoro-benzamide] | – | 5.5 µg/mL (≈ 13 µM) | – | 2.5 µg/mL (≈ 5.93 µM) | 77% | 3 µg/mL (≈ 7.12 µM) | – | – | –
28 | Cc1cccc(C(C)NC(=S)Nc2ccc(NC(=O)c3ccccc3F)cc2)c1 (stereo not drawn) [Example 776, 2-Fluoro-N-{4-[3-(1-m-tolyl-ethyl)-thioureido]-phenyl}-benzamide] | – | – | – | 0.9 µg/mL (≈ 2.21 µM) | – | – | > 10 µg/mL | > 7.5 µg/mL | –
